The source of these data is publication PMC6767236, “Selective Cannabinoid 2 Receptor Agonists as Potential Therapeutic Drugs for the Treatment of Endotoxin-Induced Uveitis” (Molecules, 2019).

One series deals with T1, human CB1R (Homo sapiens, UniProt P21554).
T1 construct: host or cells: CHO
The experiment in a line: PathHunter β-arrestin recruitment assay, hCB1R. In kind it is cell-based. As to conditions: read-out: hCB1R: beta arrestin EC50. How it is done:
Assays were carried out using the PathHunter hCB1_bgal, hCB2_bgal, or mCB2_bgal CHOK1 β-arrestin recruitment assay kit (DiscoveRx, Fremont, CA, USA) as previously described. A total of 5000 cells per well were seeded in 384-well plates (Perkin Elmer, MA, USA) containing 20 μL cell culture medium and incubated for 16–18 h at 37 °C and 5% CO2. Cells were stimulated with 10 μM of each agonist or 11 increasing concentrations and incubated for 90 min at 37 °C and 5% CO2. […] The cells were incubated for 90 min at 37 °C and 5% CO2. Compounds in DMSO stock solutions were added using a HP D300 Digital Dispenser (Tecan, Mannedorf, Switzerland). The final concentration of organic solvent per assay point was ≤ 0.1%. The PathHunter Detection mixture was used, according to the manufacturer’s protocol, to determine the β-galactosidase enzyme activity. Detection mixture, 12 μL per well, was added and the plate was incubated for 1 h in the dark at room temperature. Chemiluminescence, indicated as relative light unit, was measured on an EnVision multilabel plate reader (Perkin Elmer, MA, USA).

Series [1] concerns neutrophils from CB2R-/- mice. The experiment in a line: Transwell neutrophil migration assay towards CXCL2, CB2R-/- neutrophils. Type of series: cell-based, mouse. As to conditions: 10 nM CXCL2. How it is done: As described previously, mouse neutrophils were isolated from the bone marrow of mice. Mice were euthanized, femur and tibia were dissected and flushed with ice-cold 1× Hanks balanced salt solution (HBSS; supplemented with […], pH7.5, and 0.5 mM EDTA; Invitrogen) through a sterile filter (70 μm). The suspension was centrifuged at 300× g for 12 min at 4 °C. EasySep™ neutrophil enrichment kit ([…] Technologies Inc., Vancouver, BC, Canada) was used to isolate neutrophils according to the manufacturer’s instructions. The isolated neutrophils were then washed once and the pelleted cells were suspended in RPMI (Invitrogen) containing 1% heat-inactivated fetal bovine serum (FBS, Invitrogen) and used immediately for neutrophil migration experiments or processed for adoptive transfer. The murine neutrophil isolation protocol routinely yields cell suspensions that are >95% pure and viable, as determined by cresyl violet and trypan blue exclusion, respectively.
Neutrophil migration assays were performed using a Transwell migration assay. Isolated neutrophils (1 × 10^5 cells/100 μL) from WT or CB2R^-/- mice were incubated with vehicle (0.01% DMSO), or various concentrations of RO8671304 or RO6851228 at 37 °C, 5% CO2 for 30 min. […] The number of migrated neutrophils was then determined using ImageJ. […]

Details of series [2]: method as in earlier work. The settings on record: * previously published, cited from earlier work.
Series [3] concerns adhesion of adoptively-transferred leukocytes in the iridial microcirculation. Description: Adoptive transfer of WT leukocytes into neutrophil-depleted WT mice with EIU. In kind it is in vivo, mouse. As to conditions: topical 1.5% w/v, 6 h post-EIU. The procedure:
For adoptive transfer experiments, calcein-AM-labelled leukocytes were visualized by fluorescence (495 nm excitation) in the iridial microcirculation using a Leica DMLM epifluorescence microscope (Leica, Wetzlar, Germany) equipped with a mercury-arc light source (LEG EBQ 100, Carl Zeiss, Jena, Germany) and captured by a CCD video camera (SIT 68, DAGE MTI, Michigan, IN, USA). Videos were recorded using WinDV Capture software (Mourek, Prague, Czech Republic) and stored on an external hard drive.
During IVM animals were placed on a heating pad in a stereotactic frame, and Tear-Gel® (Novartis Pharmaceuticals Canada Inc., Dorval, QC, Canada) was applied to their cornea. The iris was divided into four equal quadrants by drawing two superficial lines on the cornea, lengthwise and widthwise. […] Two to four videos of each quadrant were recorded for 30 s each. Videos were analyzed off-line without knowledge of the treatment groups. […] Using ImageJ software (National Institute of Health, Bethesda, MD, USA) the number of adherent leukocytes within each vessel segment was calculated by measuring the diameter and length of vessel segment studied, assuming a cylindrical geometry of blood vessels. Adherent leukocytes were expressed as number of cells per mm^2 of endothelial surface. […] The number of rolling leukocytes was counted for 30 s and used to calculate the number of rolling leukocytes per min. […]

What is called EC50 is the midpoint of the concentration-response curve.

T1 sequence (P21554 whole entry): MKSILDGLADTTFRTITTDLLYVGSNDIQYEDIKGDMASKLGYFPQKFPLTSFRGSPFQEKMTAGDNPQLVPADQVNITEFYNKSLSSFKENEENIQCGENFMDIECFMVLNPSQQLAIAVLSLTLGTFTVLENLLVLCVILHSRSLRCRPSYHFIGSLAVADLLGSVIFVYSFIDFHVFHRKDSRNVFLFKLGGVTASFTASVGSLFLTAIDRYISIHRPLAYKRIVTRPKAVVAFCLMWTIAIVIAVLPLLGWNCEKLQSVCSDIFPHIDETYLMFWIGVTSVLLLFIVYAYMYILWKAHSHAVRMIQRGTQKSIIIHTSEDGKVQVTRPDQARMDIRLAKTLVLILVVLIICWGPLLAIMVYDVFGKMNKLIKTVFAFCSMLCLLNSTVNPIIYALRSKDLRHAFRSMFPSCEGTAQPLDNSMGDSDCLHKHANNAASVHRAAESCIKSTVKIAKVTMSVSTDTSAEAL

With `CC(C)(C)c1nc(N2CC[C@H](O)C2)c2nnn(Cc3nnnn3C3CC3)c2n1` [RO6871304, (3S)-1-{5-tert-butyl-3-[(1-cyclopropyl-1H-tetrazol-5-yl)methyl]-3H-[1,2, 3]triazolo[4,5-d]pyrimidin-7-yl}pyrrolidin-3-ol], the EC50 at human CB1R was > 30 µM. For the same molecule, in series [1], the “CXCL2-induced migration of CB2R-/- neutrophils” value is on record as “did not inhibit migration”. Also, in series [2] (FaSSIF pH 6.5), the “Thermodynamic Solubility in FaSSIF (pH 6.5)” value is listed as 80 μg/mL. Moreover, the “Thermodynamic Solubility in FeSSIF (pH 5.5)” value in series [2] (FeSSIF pH 5.5) was 273 μg/mL. In addition, in series [2] (aqueous phosphate buffer pH 6.5), the “Thermodynamic Solubility in Aqueous Buffer (pH 6.5)” value was 56 μg/mL. For the same molecule, the “decrease of LPS-induced adhesion of adoptively-transferred leukocytes compared to vehicle” value in series [3] turned out to be 64 fold.
